Measured values taken from article PMC8550792, “Evolution of kinase polypharmacology across HSP90 drug discovery” (Cell Chemical Biology, 2021).
Like-named read-outs stand apart in the source and are kept apart here.

Experiments:
Type in all cases: biochemical
382 unique human kinases [1] = target: T1, 382 unique human kinases (Homo sapiens, UniProt Q9NYL2); experiment: biochemical; conditions: ZAK/MLTK; [ATP] 50 µM; read-out: Control Compound IC50*
T1 construct: purchased Reaction Biology (HotSpot contract assay)
T1 sequence (Q9NYL2 whole entry): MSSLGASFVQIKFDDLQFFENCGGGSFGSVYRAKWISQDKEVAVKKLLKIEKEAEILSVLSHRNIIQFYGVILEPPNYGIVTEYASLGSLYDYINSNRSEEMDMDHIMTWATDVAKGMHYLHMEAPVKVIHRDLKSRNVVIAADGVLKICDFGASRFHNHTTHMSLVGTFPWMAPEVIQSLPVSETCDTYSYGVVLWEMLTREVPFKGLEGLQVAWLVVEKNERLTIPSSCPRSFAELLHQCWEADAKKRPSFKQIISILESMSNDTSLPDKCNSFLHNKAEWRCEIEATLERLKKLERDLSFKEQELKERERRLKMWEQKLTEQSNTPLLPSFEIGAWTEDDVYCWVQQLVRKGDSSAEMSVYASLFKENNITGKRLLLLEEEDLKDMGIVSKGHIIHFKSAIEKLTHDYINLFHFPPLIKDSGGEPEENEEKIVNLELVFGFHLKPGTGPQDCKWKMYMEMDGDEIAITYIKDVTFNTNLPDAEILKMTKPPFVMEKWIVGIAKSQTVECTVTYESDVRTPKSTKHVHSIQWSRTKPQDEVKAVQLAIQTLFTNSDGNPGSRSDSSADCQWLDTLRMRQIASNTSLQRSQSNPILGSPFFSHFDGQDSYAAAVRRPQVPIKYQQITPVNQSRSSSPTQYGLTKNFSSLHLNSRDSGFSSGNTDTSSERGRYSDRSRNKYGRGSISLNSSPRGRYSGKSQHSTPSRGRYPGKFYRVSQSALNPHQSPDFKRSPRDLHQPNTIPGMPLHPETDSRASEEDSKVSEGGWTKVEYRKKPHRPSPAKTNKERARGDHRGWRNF

382 unique human kinases [2] = target: T2, 382 unique human kinases (Homo sapiens, UniProt Q15118); experiment: biochemical; conditions: PDK1/PDHK1; [ATP] 50 µM; read-out: Control Compound IC50*
T2 construct: purchased Reaction Biology (HotSpot contract assay)
T2 sequence (Q15118 29-436): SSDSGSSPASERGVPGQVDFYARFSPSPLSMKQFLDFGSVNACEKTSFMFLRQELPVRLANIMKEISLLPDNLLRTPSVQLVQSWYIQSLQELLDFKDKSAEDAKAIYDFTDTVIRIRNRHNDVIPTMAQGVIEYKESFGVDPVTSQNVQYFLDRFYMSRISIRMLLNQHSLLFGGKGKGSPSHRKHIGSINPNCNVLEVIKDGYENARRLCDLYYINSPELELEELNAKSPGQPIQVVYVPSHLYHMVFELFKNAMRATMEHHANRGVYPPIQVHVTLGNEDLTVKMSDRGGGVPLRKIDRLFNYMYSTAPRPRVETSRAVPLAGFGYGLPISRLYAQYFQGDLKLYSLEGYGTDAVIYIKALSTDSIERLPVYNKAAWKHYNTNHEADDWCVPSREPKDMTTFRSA

382 unique human kinases [3] = target: T3, 382 unique human kinases (Homo sapiens, UniProt P68400); experiment: biochemical; conditions: CK2a; read-out: Control Compound IC50*
T3 construct: purchased Reaction Biology (HotSpot contract assay)
T3 sequence (P68400 whole entry): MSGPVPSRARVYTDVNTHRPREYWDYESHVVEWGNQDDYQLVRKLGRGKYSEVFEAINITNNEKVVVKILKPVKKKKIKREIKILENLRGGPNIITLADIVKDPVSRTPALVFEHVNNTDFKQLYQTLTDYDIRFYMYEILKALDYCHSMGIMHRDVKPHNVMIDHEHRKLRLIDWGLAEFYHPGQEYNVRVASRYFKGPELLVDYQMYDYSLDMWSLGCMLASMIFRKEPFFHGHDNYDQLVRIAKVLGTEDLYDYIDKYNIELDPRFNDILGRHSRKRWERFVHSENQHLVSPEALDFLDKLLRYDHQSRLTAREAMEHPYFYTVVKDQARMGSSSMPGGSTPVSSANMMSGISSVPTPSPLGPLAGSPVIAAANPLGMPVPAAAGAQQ

382 unique human kinases [4] = target: T4, 382 unique human kinases (Homo sapiens, UniProt Q9NR20); experiment: biochemical; conditions: DYRK4; read-out: Control Compound IC50*
T4 construct: purchased Reaction Biology (HotSpot contract assay)
T4 sequence (Q9NR20 1-520): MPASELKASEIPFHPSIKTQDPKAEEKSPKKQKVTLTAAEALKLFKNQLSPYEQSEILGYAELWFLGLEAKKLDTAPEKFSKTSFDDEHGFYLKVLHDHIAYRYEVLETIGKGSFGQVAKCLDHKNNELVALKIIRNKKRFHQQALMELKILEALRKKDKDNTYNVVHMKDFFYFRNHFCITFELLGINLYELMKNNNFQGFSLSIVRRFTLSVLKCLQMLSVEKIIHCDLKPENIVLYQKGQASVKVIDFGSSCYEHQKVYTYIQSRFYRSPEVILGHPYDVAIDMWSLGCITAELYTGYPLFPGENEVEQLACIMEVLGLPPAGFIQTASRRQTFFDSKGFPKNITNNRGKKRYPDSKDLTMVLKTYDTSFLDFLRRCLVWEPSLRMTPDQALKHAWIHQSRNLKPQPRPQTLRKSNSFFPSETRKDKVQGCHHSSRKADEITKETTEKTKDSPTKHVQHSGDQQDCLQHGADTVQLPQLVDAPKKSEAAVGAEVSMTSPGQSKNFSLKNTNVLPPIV

382 unique human kinases [5] = target: T5, 382 unique human kinases (Homo sapiens, UniProt P10398); experiment: biochemical; conditions: ARAF; read-out: Control Compound IC50*
T5 construct: purchased Reaction Biology (HotSpot contract assay)
T5 sequence (P10398 1-606): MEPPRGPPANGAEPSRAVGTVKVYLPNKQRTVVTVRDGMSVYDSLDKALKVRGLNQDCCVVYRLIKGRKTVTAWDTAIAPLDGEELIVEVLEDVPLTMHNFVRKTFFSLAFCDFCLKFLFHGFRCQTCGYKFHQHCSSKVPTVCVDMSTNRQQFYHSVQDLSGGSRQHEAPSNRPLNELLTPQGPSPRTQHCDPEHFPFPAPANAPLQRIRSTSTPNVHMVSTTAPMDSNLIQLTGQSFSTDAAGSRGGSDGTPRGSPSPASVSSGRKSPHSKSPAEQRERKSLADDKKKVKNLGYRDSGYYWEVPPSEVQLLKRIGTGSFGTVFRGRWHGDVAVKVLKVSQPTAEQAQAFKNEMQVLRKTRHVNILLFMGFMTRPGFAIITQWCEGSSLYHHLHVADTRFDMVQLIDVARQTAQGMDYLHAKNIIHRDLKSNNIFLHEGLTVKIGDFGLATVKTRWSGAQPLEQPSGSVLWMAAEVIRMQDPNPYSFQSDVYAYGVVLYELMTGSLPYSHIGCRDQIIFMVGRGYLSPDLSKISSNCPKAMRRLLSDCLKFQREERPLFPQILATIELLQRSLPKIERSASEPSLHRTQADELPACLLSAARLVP

382 unique human kinases [6] = target: T6, 382 unique human kinases (Homo sapiens, UniProt Q15120); experiment: biochemical; conditions: PDK3/PDHK3; [ATP] 30 µM; read-out: Control Compound IC50*
T6 construct: purchased Reaction Biology (HotSpot contract assay)
T6 sequence (Q15120 whole entry): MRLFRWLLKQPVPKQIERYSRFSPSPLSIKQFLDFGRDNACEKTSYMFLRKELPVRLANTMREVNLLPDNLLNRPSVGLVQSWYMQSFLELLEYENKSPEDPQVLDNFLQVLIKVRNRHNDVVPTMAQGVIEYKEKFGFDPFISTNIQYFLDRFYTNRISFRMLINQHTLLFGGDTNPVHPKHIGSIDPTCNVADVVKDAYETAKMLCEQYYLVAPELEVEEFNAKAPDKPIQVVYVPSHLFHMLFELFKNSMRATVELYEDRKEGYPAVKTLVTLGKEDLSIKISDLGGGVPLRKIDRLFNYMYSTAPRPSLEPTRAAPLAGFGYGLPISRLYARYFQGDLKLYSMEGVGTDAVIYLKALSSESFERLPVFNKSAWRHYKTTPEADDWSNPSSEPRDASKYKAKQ

382 unique human kinases [7] = target: T7, 382 unique human kinases (Homo sapiens, UniProt Q15119); experiment: biochemical; conditions: PDK2/PDHK2; [ATP] 15 µM; read-out: Control Compound IC50*
T7 construct: purchased Reaction Biology (HotSpot contract assay)

382 unique human kinases [8] = target: T8, 382 unique human kinases (Homo sapiens, UniProt Q16654); experiment: biochemical; conditions: PDK4/PDKH4; [ATP] 30 µM; read-out: Control Compound IC50*
T8 construct: purchased Reaction Biology (HotSpot contract assay)
T8 sequence (Q16654 whole entry): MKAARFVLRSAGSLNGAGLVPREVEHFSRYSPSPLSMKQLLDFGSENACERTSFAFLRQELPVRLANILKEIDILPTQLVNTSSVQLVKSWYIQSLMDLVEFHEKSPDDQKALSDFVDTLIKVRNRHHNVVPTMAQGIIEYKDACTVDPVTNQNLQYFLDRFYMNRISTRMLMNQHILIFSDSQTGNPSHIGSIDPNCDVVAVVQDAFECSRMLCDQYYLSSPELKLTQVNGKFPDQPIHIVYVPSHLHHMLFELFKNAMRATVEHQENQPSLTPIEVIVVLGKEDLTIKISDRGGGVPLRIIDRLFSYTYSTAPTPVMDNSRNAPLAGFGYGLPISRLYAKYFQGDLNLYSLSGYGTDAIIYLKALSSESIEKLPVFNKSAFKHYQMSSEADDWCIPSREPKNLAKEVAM

382 unique human kinases [9] = experiment: biochemical; conditions: read-out: Control Compound IC50*
382 unique human kinases [10] = target: T9, 382 unique human kinases (Homo sapiens, UniProt Q9Y572); experiment: biochemical; conditions: RIPK3; [ATP] 2.5 µM; read-out: Control Compound IC50*
T9 construct: purchased Reaction Biology (HotSpot contract assay)
T9 sequence (Q9Y572 whole entry): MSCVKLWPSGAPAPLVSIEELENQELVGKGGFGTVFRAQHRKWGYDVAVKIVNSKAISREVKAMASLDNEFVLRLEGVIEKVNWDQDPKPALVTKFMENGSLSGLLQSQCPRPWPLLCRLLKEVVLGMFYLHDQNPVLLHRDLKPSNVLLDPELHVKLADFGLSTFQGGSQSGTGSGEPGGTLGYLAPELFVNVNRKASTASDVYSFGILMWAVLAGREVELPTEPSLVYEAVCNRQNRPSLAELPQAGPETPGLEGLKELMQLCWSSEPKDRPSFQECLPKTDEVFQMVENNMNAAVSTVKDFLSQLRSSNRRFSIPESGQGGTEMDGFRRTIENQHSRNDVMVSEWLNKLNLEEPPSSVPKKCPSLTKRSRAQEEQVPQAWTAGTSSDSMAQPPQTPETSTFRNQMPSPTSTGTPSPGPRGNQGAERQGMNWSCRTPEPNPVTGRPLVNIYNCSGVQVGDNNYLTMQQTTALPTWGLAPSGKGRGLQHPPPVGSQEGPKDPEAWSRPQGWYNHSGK

PDK2/PDHK2 = target: T10, PDK2/PDHK2 (Homo sapiens, UniProt Q15119); experiment: HotSpot in vitro kinase radiometric assay; conditions: PDK2/PDHK2; ATP 15 uM; read-out: IC50 (M) Control Cmpd
T10 construct: purchased Reaction Biology (HotSpot contract assay)
Procedure: (§1) Accordingly, we selected five additional representative HSP90 inhibitors, at least one from each chemical class, including both synthetic inhibitors and natural products. […]
(§2) This radioisotope binding assay was designed to directly detect the true product without the use of modified substrates, coupling enzymes, or detection antibodies thus enabling to directly measure inhibition of catalytic activity. Test or control compounds were incubated with kinase, substrate, cofactors, and radioisotope-labeled ATP (32P-ɣ-ATP or 33P-ɣ-ATP). The reaction mixtures were then spotted onto filter papers, which bind the radioisotope-labeled catalytic product.

PDK4/PDKH4 = target: T11, PDK4/PDKH4 (Homo sapiens, UniProt Q16654); experiment: HotSpot in vitro kinase radiometric assay; conditions: PDK4/PDKH4; ATP 30 uM; read-out: IC50 (M) Control Cmpd
T11 construct: purchased Reaction Biology (HotSpot contract assay)
T11 sequence (Q16654 whole entry): as the sequence (Q16654 whole entry) above
Procedure: as §1, §2

## O=C1Nc2ccc(I)cc2/C1=C/c1cc(Br)c(O)c(Br)c1 [GW5074]
382 unique human kinases [1]
  IC50: 2620 nM
382 unique human kinases [2]
  IC50: 32200 nM
382 unique human kinases [3]
  IC50: 398 nM
382 unique human kinases [4]
  IC50: 1880 nM
382 unique human kinases [5]
  IC50: 14 nM
382 unique human kinases [6]
  IC50: 12100 nM
382 unique human kinases [7]
  IC50: 6610 nM
382 unique human kinases [8]
  IC50: 1720 nM
382 unique human kinases [9]; BRAF (R506_K507insVLR)
  IC50: […]
382 unique human kinases [9]; BRAF (T599_V600insT)
  IC50: […]
382 unique human kinases [9]; BRAF (d485-489/P490Y)
  IC50: […]
382 unique human kinases [9]; BRAF-FAM131B (Fex2Bex9)
  IC50: […]
382 unique human kinases [9]; BRAF-KIAA1549 (Kex15Bex9)
  IC50: […]
382 unique human kinases [9]; BRAF-KIAA1549 (Kex16Bex9)
  IC50: […]
382 unique human kinases [9]; BRAF-SRGAP3 (Sex12Bex9)
  IC50: […]
382 unique human kinases [10]
  IC50: 1060 nM
PDK2/PDHK2
  IC50: 6.39e-06 M
PDK4/PDKH4
  IC50: 2.51e-06 M
